Test results reported in US9364438B2, “Process for producing solid particles” (Takeda Pharmaceutical Company Limited, priority 2012, dated 2016).

Assay: Microscopic observation of precipitated resatorvid crystals (poor solvent crystallization)
Type: physicochemical
Settings: microscope
Method: Resatorvid (10 mg) was dissolved in methanol (0.5 mL) to prepare a methanol solution of resatorvid. The solution was added dropwise to water (5 mL) for injection with stirring at 600 rpm to allow precipitation of resatorvid crystal. The crystal was recovered, and vacuum dried at 50° C. for 24 hr. The obtained crystal was observed under a microscope.
In the same manner as in Comparative Example 1 except that water for injection containing nanobubbles produced under the above-mentioned conditions was used instead of water for injection, resatorvid crystal was obtained. The obtained crystal was observed under a microscope.
Resatorvid (10 mg) was dissolved in methanol (0.5 mL) to prepare a methanol solution of resatorvid. Polysorbate 80 (2 mg) was dissolved in water for injection (10 mL) to prepare aqueous polysorbate 80 solution. The aforementioned resatorvid solution (0.5 mL) was added dropwise to water (10 mL) for injection with stirring at 600 rpm to allow precipitation of resatorvid crystal. The crystal was recovered, and vacuum dried at 50° C. for 24 hr. The obtained crystal was observed under a microscope.
In the same manner as in Comparative Example 2 except that water for injection containing nanobubbles produced under the above-mentioned conditions was used instead of water for injection, resatorvid crystal was obtained. The obtained crystal was observed under a microscope.

Compound | average maximum length of each crystal particle (poor solvent aqueous polysorbate 80 nanobubble solution, compared with conventional aqueous polysorbate 80 solution (Comparative Example 2)) | average maximum length of each crystal particle (poor solvent nanobubble water, compared with conventional water for injection (Comparative Example 1), FIG. 1 vs FIG. 2)
CCOC(=O)C1=CCCC[C@H]1S(=O)(=O)Nc1ccc(F)cc1Cl [Example 2, ethyl (6R)-6-[(2-chloro-4-fluoroanilino)sulfonyl]-1-cyclohexene-1-carboxylate] | smaller average maximum length | –
CCOC(=O)C1=CCCC[C@H]1S(=O)(=O)Nc1ccc(F)cc1Cl [Example 1, ethyl (6R)-6-[(2-chloro-4-fluoroanilino)sulfonyl]-1-cyclohexene-1-carboxylate] | – | smaller average maximum length
